Test results reported in PubChem BioAssay AID330 (DTP/NCI, 2004).
Several values for one entry are separate records, joined by “and”; a condition that tells them apart may be missing. Equal entries are not always repeated. Inconclusive results and toxic doses are left out.

System: P388 leukemia ip, CD2F1 mice, survival T/C
Experiment: NCI In Vivo Anticancer Drug Screen. Data for tumor model P388 Leukemia (intraperitoneal) in CD2F1 (CDF1) mice
Details: endpoint: median survival time, higher = longer survival
Procedure, shortened: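 Mice carrying the transplanted tumor received test compound or vehicle. Survival was recorded in each group, and the value is the treated-group measurement divided by that of the vehicle-treated control group.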

[1] = dose: 60.0 mg/kg/injection, schedule: Q01DX005 (ip), vehicle: saline with Tween-80
[2] = dose: 120.0 mg/kg/injection, schedule: Q01DX005 (ip), vehicle: saline with Tween-80
[3] = dose: 240.0 mg/kg/injection, schedule: Q01DX005 (ip), vehicle: saline with Tween-80
[4] = dose: 50.0 mg/kg/injection, schedule: Q01DX005 (ip), vehicle: Klucel (hydroxypropylcellulose) (HPC)
[5] = dose: 100.0 mg/kg/injection, schedule: Q01DX005 (ip), vehicle: Klucel (hydroxypropylcellulose) (HPC)
[6] = dose: 60.0 mg/kg/injection, schedule: Q01DX005 (ip), vehicle: Klucel (hydroxypropylcellulose) (HPC)
[7] = dose: 120.0 mg/kg/injection, schedule: Q01DX005 (ip), vehicle: Klucel (hydroxypropylcellulose) (HPC)
[8] = dose: 50.0 mg/kg/injection, schedule: Q01DX009 (ip), vehicle: saline
[9] = dose: 100.0 mg/kg/injection, schedule: Q01DX009 (ip), vehicle: saline
[10] = dose: 200.0 mg/kg/injection, schedule: Q01DX009 (ip), vehicle: saline

## COc1c(OC)c(C2(O)C(=O)N(C)c3ccccc32)c2c(c1C1(O)C(=O)N(C)c3ccccc31)OCO2 (stereo unspecified)
[1]
  T/C: 95 % of control
[2]
  T/C: 90 % of control
[3]
  T/C: 89 % of control

## O=C(N/N=C/c1cc(Br)cc(Br)c1[O-])c1ccccc1.O=C(N/N=C/c1cc(Br)cc(Br)c1[O-])c1ccccc1.[Co+2]
dose: 100.0 mg/kg/injection, schedule: Q01DX001 (ip), vehicle: saline with Tween-80
  T/C: 86 % of control

## CC(=O)C1(C)Nc2cccc3cccc(c23)N1
[4]
  T/C: 100 % of control
[5]
  T/C: 96 % of control
dose: 200.0 mg/kg/injection, schedule: Q01DX005 (ip), vehicle: Klucel (hydroxypropylcellulose) (HPC)
  T/C: 101 % of control

## COc1cccc2cc3c(cc12)C(=O)C(C)=C(C)C3=O
dose: 100.0 mg/kg/injection, schedule: Q04DX003 (ip), vehicle: Klucel (hydroxypropylcellulose) (HPC)
  T/C: 94 % of control
dose: 200.0 mg/kg/injection, schedule: Q04DX003 (ip), vehicle: Klucel (hydroxypropylcellulose) (HPC)
  T/C: 97 % of control
dose: 400.0 mg/kg/injection, schedule: Q04DX003 (ip), vehicle: Klucel (hydroxypropylcellulose) (HPC)
  T/C: 109 % of control

## CCCCNC=C1C(=O)Nc2ccccc2NC1=O
[6]
  T/C: 98 % of control
[7]
  T/C: 92 % of control
dose: 240.0 mg/kg/injection, schedule: Q01DX005 (ip), vehicle: Klucel (hydroxypropylcellulose) (HPC)
  T/C: 91 % of control

## COc1cc(/C=C2/Nc3ccc(Cl)cc3NC2=O)ccc1O
[1]
  T/C: 93 % of control
[2]
  T/C: 98 % of control
[3]
  T/C: 96 % of control

## CN1CC[C@]23c4c5ccc(O)c4O[C@H]2C(=O)CC[C@@]3(O)[C@H]1C5
[8]
  T/C: 94 % of control
[9]
  T/C: 109 % of control
[10]
  T/C: 102 % of control

## CCOc1cc2c(NCCCN(CCO)CCO)ncnc2c(OCC)c1OCC
[8]
  T/C: 101 % of control
[9]
  T/C: 111 % of control
[10]
  T/C: 101 % of control

## CCOc1cc2c(cc1Cc1ccc(OC)cc1)OCO2
dose: 50.0 mg/kg/injection, schedule: Q01DX005 (ip), vehicle: distilled water + alcohol
  T/C: 108 % of control
dose: 100.0 mg/kg/injection, schedule: Q01DX005 (ip), vehicle: distilled water + alcohol
  T/C: 95 % of control
dose: 200.0 mg/kg/injection, schedule: Q01DX005 (ip), vehicle: distilled water + alcohol
  T/C: 109 % of control

## CN1C(=O)Cc2ccccc21
dose: 25.0 mg/kg/injection, schedule: Q01DX009 (ip), vehicle: Klucel (hydroxypropylcellulose) (HPC)
  T/C: 99 % of control
dose: 50.0 mg/kg/injection, schedule: Q01DX009 (ip), vehicle: Klucel (hydroxypropylcellulose) (HPC)
  T/C: 101 % of control
dose: 100.0 mg/kg/injection, schedule: Q01DX009 (ip), vehicle: Klucel (hydroxypropylcellulose) (HPC)
  T/C: 105 % of control
dose: 200.0 mg/kg/injection, schedule: Q01DX009 (ip), vehicle: Klucel (hydroxypropylcellulose) (HPC)
  T/C: 99 % of control

## Cc1c2c(=O)oc3ccc(Cl)cc3c2nn1-c1ccccc1
[6]
  T/C: 96 % of control
[7]
  T/C: 93 % of control

## CC1(C)N=C(N)N=C(N)N1c1ccc(F)c(C(F)(F)F)c1
dose: 1.0 mg/kg/injection, schedule: Q01DX009 (ip), vehicle: saline
  T/C: 118 % of control
dose: 4.0 mg/kg/injection, schedule: Q08DX002 (ip), vehicle: saline
  T/C: 119 % of control
dose: 8.0 mg/kg/injection, schedule: Q01DX009 (ip), vehicle: saline
  T/C: 170 % of control
dose: 8.0 mg/kg/injection, schedule: Q08DX002 (ip), vehicle: saline
  T/C: 120 % of control
dose: 16.0 mg/kg/injection, schedule: Q01DX009 (ip), vehicle: saline
  T/C: 181 % of control
dose: 32.0 mg/kg/injection, schedule: Q01DX001 (ip), vehicle: saline
  T/C: 121 % of control
dose: 32.0 mg/kg/injection, schedule: Q01DX009 (ip), vehicle: saline
  T/C: 190 % of control
dose: 64.0 mg/kg/injection, schedule: Q01DX001 (ip), vehicle: saline
  T/C: 121 % of control
dose: 64.0 mg/kg/injection, schedule: Q01DX009 (ip), vehicle: saline
  T/C: 90 % of control
dose: 128.0 mg/kg/injection, schedule: Q01DX001 (ip), vehicle: saline
  T/C: 122 % of control

## COC(=O)C(C)NC(=O)C(C)NC(=O)c1ccc(OC)cc1 (stereo unspecified)
dose: 100.0 mg/kg/injection, schedule: Q04DX002 (ip), vehicle: saline with Tween-80
  T/C: 105 % of control
dose: 200.0 mg/kg/injection, schedule: Q04DX002 (ip), vehicle: saline with Tween-80
  T/C: 99 % of control
dose: 400.0 mg/kg/injection, schedule: Q04DX002 (ip), vehicle: saline with Tween-80
  T/C: 91 % of control

## c1ccc(-c2cc3cc4c(cc3[nH]2)Sc2ccccc2O4)cc1
dose: 110.0 mg/kg/injection, schedule: Q01DX001 (ip), vehicle: Klucel (hydroxypropylcellulose) (HPC)
  T/C: 97 % of control
dose: 220.0 mg/kg/injection, schedule: Q01DX001 (ip), vehicle: Klucel (hydroxypropylcellulose) (HPC)
  T/C: 101 % of control
dose: 440.0 mg/kg/injection, schedule: Q01DX001 (ip), vehicle: Klucel (hydroxypropylcellulose) (HPC)
  T/C: 99 % of control

## CP1(=S)CC[C@H]2C3=C(CC[C@@H]21)CC(=O)CC3 (stereo partly specified)
dose: 50.0 mg/kg/injection, schedule: Q01DX005 (ip), vehicle: saline + Tween-80 + alcohol
  T/C: 106 % of control
dose: 100.0 mg/kg/injection, schedule: Q01DX005 (ip), vehicle: saline + Tween-80 + alcohol
  T/C: 103 % of control
dose: 200.0 mg/kg/injection, schedule: Q01DX005 (ip), vehicle: saline + Tween-80 + alcohol
  T/C: 97 % of control

## COc1ccc(CS(=O)(=O)c2cnc(N3CCN(C)CC3)nc2N)cc1OC
dose: 100.0 mg/kg/injection, schedule: Q01DX001 (ip), vehicle: saline
  T/C: 101 % of control
dose: 200.0 mg/kg/injection, schedule: Q01DX001 (ip), vehicle: saline
  T/C: 98 % of control
dose: 400.0 mg/kg/injection, schedule: Q01DX001 (ip), vehicle: saline
  T/C: 98 % of control

## Cc1ccccc1N1C(=O)[N+]2(CCCCC2)N=C1[O-]
dose: 100.0 mg/kg/injection, schedule: Q04DX003 (ip), vehicle: saline with Tween-80
  T/C: 99 % of control
dose: 200.0 mg/kg/injection, schedule: Q04DX003 (ip), vehicle: saline with Tween-80
  T/C: 100 % of control
dose: 400.0 mg/kg/injection, schedule: Q04DX003 (ip), vehicle: saline with Tween-80
  T/C: 92 % of control

## CC(C)C/C=C/CCCCCCCCCC(=O)NCC(=O)NC1C(C)OC(Nc2ncnc3nc[nH]c23)C(O)C1O (stereo unspecified)
dose: 0.5 mg/kg/injection, schedule: Q01DX009 (ip), vehicle: water
  T/C: 112 % of control and 123 % of control (2×)
dose: 1.0 mg/kg/injection, schedule: Q01DX009 (ip), vehicle: water
  T/C: 101 % of control and 103 % of control and 121 % of control
dose: 2.0 mg/kg/injection, schedule: Q01DX009 (ip), vehicle: water
  T/C: 155 % of control
dose: 4.0 mg/kg/injection, schedule: Q01DX009 (ip), vehicle: water
  T/C: 123 % of control and 87 % of control
dose: 8.0 mg/kg/injection, schedule: Q01DX009 (ip), vehicle: water
  T/C: 156 % of control and 178 % of control

## C/C=C(\C)C(=O)OC1CC(C)(C)C2C3C(=O)C=C(C)C2C3(C)C1OC(=O)/C(C)=C/C (stereo unspecified)
dose: 75.0 mg/kg/injection, schedule: Q01DX001 (ip), vehicle: Klucel (hydroxypropylcellulose) (HPC)
  T/C: 97 % of control
dose: 150.0 mg/kg/injection, schedule: Q01DX001 (ip), vehicle: Klucel (hydroxypropylcellulose) (HPC)
  T/C: 98 % of control
dose: 300.0 mg/kg/injection, schedule: Q01DX001 (ip), vehicle: Klucel (hydroxypropylcellulose) (HPC)
  T/C: 101 % of control

## O=NNc1ccc(-c2ccc([N+](=O)[O-])cc2)cn1
dose: 3.12 mg/kg/injection, schedule: Q01DX009 (ip), vehicle: saline
  T/C: 170 % of control
dose: 6.25 mg/kg/injection, schedule: Q01DX009 (ip), vehicle: saline
  T/C: 108 % of control

## Cc1cc2nc(CN)[nH]c2cc1C
dose: 50.0 mg/kg/injection, schedule: Q04DX003 (ip), vehicle: saline
  T/C: 100 % of control
dose: 100.0 mg/kg/injection, schedule: Q04DX003 (ip), vehicle: saline
  T/C: 100 % of control
dose: 200.0 mg/kg/injection, schedule: Q04DX003 (ip), vehicle: saline
  T/C: 95 % of control

## c1ccc2c(c1)C1CC3N=NC1C23 (stereo unspecified)
[4]
  T/C: 105 % of control
[5]
  T/C: 107 % of control
